Test results: article PMC3826149, “Red Algal Bromophenols as Glucose 6-Phosphate Dehydrogenase Inhibitors” (Marine Drugs, 2013)

Legend:
[1] = biological target: T1, glucose 6-phosphate dehydrogenase (G6PD) (Leuconostoc mesenteroides, UniProt P11411); assay: G6PD enzyme inhibition assay (colorimetric, WST-1/1-methoxy PMS); format: biochemical; details: for IC50: Mean ± SD (n = 3), glucose 6-phosphate 3.0 mM, NADP+ 0.3 mM, read-out: IC50 on glucose 6-phosphate dehydrogenase (G6PD) reaction; for G6PD inhibition in words: qualitative statement
T1 construct: purchased Sigma-Aldrich (St. Louis, MO, USA)
T1 sequence (P11411 1-486): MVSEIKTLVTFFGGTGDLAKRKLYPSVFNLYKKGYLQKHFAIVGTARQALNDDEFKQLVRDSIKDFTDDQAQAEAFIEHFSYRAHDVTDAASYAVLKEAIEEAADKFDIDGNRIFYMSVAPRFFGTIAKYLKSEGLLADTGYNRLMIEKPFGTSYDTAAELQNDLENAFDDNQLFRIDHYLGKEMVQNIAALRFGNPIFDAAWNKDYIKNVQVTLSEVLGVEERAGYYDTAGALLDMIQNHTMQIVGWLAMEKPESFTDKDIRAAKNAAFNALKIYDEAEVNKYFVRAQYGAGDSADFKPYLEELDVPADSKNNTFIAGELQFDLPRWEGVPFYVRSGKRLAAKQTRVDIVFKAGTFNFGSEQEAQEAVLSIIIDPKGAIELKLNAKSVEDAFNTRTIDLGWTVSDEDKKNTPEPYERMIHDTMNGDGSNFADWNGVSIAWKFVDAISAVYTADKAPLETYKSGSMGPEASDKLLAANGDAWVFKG
Source text: G6PD (EC 1.1.1.49) from Leuconostoc mesenteroides was purchased from Sigma-Aldrich (St. Louis, MO, USA). WST-1 and 1-methoxy-5-methylphenazinium methylsulfate (1-methoxy PMS) were purchased from Dojindo Laboratories (Mashiki, Kumamoto, Japan) and oxidized nicotinamide adenine dinucleotide phosphate (NADP^+) from Oriental Yeast Industries (Tokyo, Japan). Glucose 6-phosphate was purchased from Wako Pure Chemicals (Tokyo, Japan). Epigallocatechin gallate (EGCG) was purchased from Cayman Chemical Company (Ann Arbor, MI, USA). Thin layer chromatography (TLC) was carried out using a glass plate precoated with silica gel 60 F254 and RP-18 (Merck, Darmstadt, Germany), and spots were detected under UV light and visualized by spraying 50% sulfuric acid and potassium ferricyanide-ferric chloride reagents. NMR spectra were recorded in acetone-d6 on a Bruker AMX-500 (Karlsruhe, Germany) spectrometer at 500 MHz for proton and 125 MHz for carbon chemical shifts. Field desorption-MS spectra were recorded on a JEOL JMS-T100GCV spectrometer (Tokyo, Japan).
Enzyme assay was carried out by colorimetric method as described in literature with slight modification. The reaction mixture was prepared by adding 135 mM Tris-HCl buffer (pH 7.8, 675 μL), 30 mM glucose 6-phosphate (100 μL), 3 mM NADP^+ (100 μL), 20 mM MgCl2 (100 μL) and test materials in MeOH (15 μL). Reaction was initiated by adding 0.035 U/mL G6PD solution (10 μL) to the reaction mixture. Each reaction was carried out at 25 °C for 15 min and terminated by adding 1 mL of saturated aqueous NaCl solution. For determination of produced NADPH, 0.05 mM WST-1 (400 μL) and 0.025 mM 1-methoxy PMS (400 μL) were mixed to the reaction mixture (400 μL) and the absorbance was measured at 438 nm. EGCG was used as a positive control.

[2] = biological target: purified α-glucosidase; parameters: method as in PMID 20629879; details: previous study; cited from earlier work
[3] = read-out: Inhibition (%) of G6PD

SMILES | IC50 [1] [µM] | G6PD inhibition in words [1] | further results
O=Cc1cc(Br)c(O)c(Br)c1 [Compound 1] | 76.6 ± 1.1 | – | –
OCc1cc(O)c(O)c(Br)c1 [Compound 2] | > 370 | low inhibition | inhibition at 370 µM [1, 3]: 37.6%
COCc1cc(O)c(O)c(Br)c1 [Compound 3] | > 340 | low inhibition | inhibition at 340 µM [1, 3]: 35.7%
OCc1cc(O)c(O)c(Br)c1Cc1cc(O)c(O)c(Br)c1Br [Compound 4] | 4.01 ± 0.3 | – | –
Oc1cc(COCc2cc(O)c(O)c(Br)c2Br)c(Br)c(Br)c1O [Compound 5] | 0.85 ± 0.1 | – | fold lower IC50 value than epigallocatechin gallate (EGCG) ([1]; G6PD IC50 relative to known inhibitor EGCG): 9.1 fold; IC50 [2]: 1000 to 1200 µM
O=C(O[C@@H]1Cc2c(O)cc(O)cc2O[C@@H]1c1cc(O)c(O)c(O)c1)c1cc(O)c(O)c(O)c1 [Epigallocatechin gallate, reference compound] | 7.7 ± 0.14 | – | –
